Paper PMC10838150 (Toxicology in vitro : an international journal published in …, 2021)
Like-named read-outs stand apart in the source and are kept apart here.

What was measured:
[1] = tested on: HEK293
[2] = tested on: MCF7
[3] = tested on: HepG2
[4] = Metabolic clearance; details: human, HEK293 cells, Mean Half-life, HEK293, 1 μM, one-phase exponential decay
[5] = tested on: HEK293; test: Metabolic clearance; details: HEK293, 1 μM
[6] = Metabolic clearance; details: human, Mean Half-life, 50-donor pool PHHs, one-phase exponential decay
[7] = tested on: 50-donor pool PHHs; test: Metabolic clearance; details: 1 μM
[8] = Metabolic clearance; details: human, HepG2 cells, Mean Half-life, HepG2, 1 μM, one-phase exponential decay
[9] = tested on: HepG2; test: Metabolic clearance; details: HepG2, 1 μM
[10] = Metabolic clearance; details: human, MCF7 cells, Mean Half-life, MCF7, 1 μM, one-phase exponential decay
[11] = tested on: MCF7; test: Metabolic clearance; details: MCF7, 1 μM
[12] = biological target: T1, CYP2B6 (Homo sapiens, UniProt P20813); test: Hydroxybupropion formation from bupropion in HCT116; format: in vitro ADME; details: HCT116 cells
T1 sequence (P20813 1-491): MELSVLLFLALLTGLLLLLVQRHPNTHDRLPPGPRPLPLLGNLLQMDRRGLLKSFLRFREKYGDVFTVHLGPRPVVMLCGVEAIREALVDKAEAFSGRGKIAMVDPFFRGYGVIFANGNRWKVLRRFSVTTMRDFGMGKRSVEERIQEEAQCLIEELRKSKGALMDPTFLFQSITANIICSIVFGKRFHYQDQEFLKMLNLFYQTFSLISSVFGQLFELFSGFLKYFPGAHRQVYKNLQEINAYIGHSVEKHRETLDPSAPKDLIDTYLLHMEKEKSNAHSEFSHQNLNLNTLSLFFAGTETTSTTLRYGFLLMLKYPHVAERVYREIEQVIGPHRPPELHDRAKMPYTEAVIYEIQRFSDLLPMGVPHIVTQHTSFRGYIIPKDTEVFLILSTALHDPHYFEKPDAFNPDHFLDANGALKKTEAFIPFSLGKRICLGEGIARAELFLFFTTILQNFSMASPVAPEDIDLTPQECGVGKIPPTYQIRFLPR

[13] = biological target: T1, CYP2B6; test: Hydroxybupropion formation from bupropion in HepG2; format: in vitro ADME; details: HepG2 cells
[14] = tested on: CYP2B6; test: Hydroxybupropion formation from bupropion in C3H10T1/2; format: in vitro ADME, mouse; details: C3H10T1/2, 24 h, Michaelis-Menten fit
[15] = biological target: T1, CYP2B6; test: Hydroxybupropion formation from bupropion in HEK293; format: in vitro ADME; details: HEK293 cells
[16] = tested on: CYP1A2; test: CYP450-Glo bioluminescent assay CYP1A2 in Tox21 cell lines; format: cell-based; details: 24 hours pretreatment
[17] = tested on: sulfotransferase; details: ref Ishii and Tamura, 2003, cited from earlier work
[18] = tested on: PHHs; details: 150 minutes, 50 μM 7HC
[19] = tested on: CYP1A2; test: Acetaminophen formation from phenacetin in C3H10T1/2; format: in vitro ADME, mouse
[20] = tested on: CYP1A2; test: Acetaminophen formation from phenacetin in HepG2; format: in vitro ADME, human
[21] = tested on: CYP3A4/5; test: 1-Hydroxymidazolam formation from midazolam in HepG2; format: in vitro ADME, human
[22] = tested on: CYP3A4/5; test: 1-Hydroxymidazolam formation from midazolam in PHH suspensions; format: in vitro ADME, human
[23] = tested on: HepG2; details: human, 1 μM
[24] = tested on: MCF7; details: human, 1 μM
[25] = tested on: HEK293; details: human, 1 μM
[26] = tested on: 50-donor pool PHHs; details: human, 1 μM
[27] = HepG2, 24 h, Michaelis-Menten fit

SMILES: O=C(O)[C@H]1O[C@@H](Oc2ccc(C(c3ccc(O)cc3)(C(F)(F)F)C(F)(F)F)cc2)[C@H](O)[C@@H](O)[C@@H]1O [BPAF G, bisphenol AF glucuronide]
- Phase II Metabolite Formation Rate ([1]; HEK293, 150 minutes, 50 μM BPAF or BPS): -------------^1
- Phase II Metabolite Formation Rate ([1]; HEK293, 24 hours, 50 μM BPAF or BPS): -------------^1
- Phase II Metabolite Formation Rate ([2]; MCF7, 150 minutes, 50 μM BPAF or BPS): -------------^1
- Phase II Metabolite Formation Rate ([2]; MCF7, 24 hours, 50 μM BPAF or BPS): -------------^1
- Phase II Metabolite Formation Rate ([3]; HepG2, 150 minutes, 50 μM BPAF or BPS): -------------^1

SMILES: O=c1ccc2ccc(O)cc2o1 [7HC, 7-hydroxycoumarin]
- half-life at 1 μM [4]: ~3.5 h
- Percent Depletion 240 min [5]: 50%
- Percent Depletion 24 hour [5]: 99%
- Mean Half-life ([5]; one-phase exponential decay): 3.498 h
- half-life at 1 μM [6]: ~0.383 h
- Percent Depletion 240 min [7]: 99%
- Mean Half-life ([7]; one-phase exponential decay): 0.378 h
- half-life at 1 μM [8]: ~4.83 h
- Percent Depletion 240 min [9]: 27%
- Mean Half-life ([9]; one-phase exponential decay): 4.843 h
- half-life at 1 μM [10]: ~4.83 h
- Percent Depletion 240 min [11]: 40%
- Mean Half-life ([11]; one-phase exponential decay): 4.875 h

SMILES: CC(NC(C)(C)C)C(=O)c1cccc(Cl)c1 (stereo not drawn) [Bupropion, bupropion]
- Km at 24 h [12]: 1910 ± 1050 µM
- Km at 24 h [13]: 4.79 ± 5.48 µM
- Vmax CYP2B6 [14]: 0.0422 ± 0.0119
- Km at 24 h [15]: 1260 ± 734 µM

SMILES: Nn1nnc2ccccc21 [ABT, aminobenzotriazole]
- inhibition of CYP1A2 luminescent metabolite formation ([16]; ABT 1 mM, HepG2, MCF7, CHO-K1, C3H10T1/2, GH3TRE-Luc): only inhibited in CHO-K1 cells

SMILES: COc1ccc2[nH]c([S+]([O-])Cc3ncc(C)c(OC)c3C)nc2c1 (stereo not drawn) [OMP, omeprazole]
- induction of CYP1A2 luminescence ([16]; OMP 100 μM, Tox21 cell lines): only marginal increased luminescence

SMILES: CC(C)(c1ccc(O)cc1)c1ccc(O)cc1 [bisphenol A]
- depletion ([17]; after 5 days incubations with 10 μM exposure): 4%
- Km ([17]; read-out: apparent Km for sulfotransferase activity): 74 µM

SMILES: O=C(O)[C@H]1O[C@@H](Oc2ccc3ccc(=O)oc3c2)[C@H](O)[C@@H](O)[C@@H]1O [7HCG, 7-hydroxycoumarin glucuronide]
- Phase II Metabolite Formation Rate ([1]; HEK293, 150 minutes, 50 μM 7HC): -------------^1
- Phase II Metabolite Formation Rate ([1]; HEK293, 24 hours, 50 μM 7HC): -------------^1
- Phase II Metabolite Formation Rate ([2]; MCF7, 150 minutes, 50 μM 7HC): 1.34 ± 0.206 pmol/minute-million cells
- Phase II Metabolite Formation Rate ([2]; MCF7, 24 hours, 50 μM 7HC): 0.809 ± 0.0457 pmol/minute-million cells
- Phase II Metabolite Formation Rate ([3]; HepG2, 150 minutes, 50 μM 7HC): 1.96 ± 0.887 pmol/minute-million cells
- Phase II Metabolite Formation Rate ([3]; HepG2, 24 hours, 50 μM 7HC): 2.89 ± 0.563 pmol/minute-million cells
- Phase II Metabolite Formation Rate [18]: 190 ± 41.8 pmol/minute-million cells

SMILES: CCOc1ccc(NC(C)=O)cc1 [Phenacetin]
- Vmax CYP1A2 ([19]; C3H10T1/2, 24 h, Michaelis-Menten fit): 0.168 ± 0.0393
- Km at 24 h ([19]; mouse, C3H10T1/2 cells): 247 ± 111 µM
- Vmax CYP1A2 [20, 27]: 0.320 ± 0.0234
- Km at 24 h ([20]; human, HepG2 cells): 38.4 ± 11.8 µM

SMILES: Cc1ncc2n1-c1ccc(Cl)cc1C(c1ccccc1F)=NC2 [Midazolam, midazolam]
- Vmax CYP3A4/5 [21, 27]: 0.0177 ± 0.000912
- Km at 24 h ([21]; human, HepG2 cells): 0.969 ± 0.268 µM
- Vmax CYP3A4/5 ([22]; PHH, 30 min, Michaelis-Menten fit): 187 ± 8.35
- Km at 30 min ([22]; human): 10.7 ± 1.34 µM

SMILES: Oc1ccc(C(c2ccc(O)cc2)(C(F)(F)F)C(F)(F)F)cc1 [BPAF, bisphenol AF]
- Percent Depletion 240 min ([23]; 240 min): 36 ±/- 8.2%
- Percent Depletion 24 hour ([23]; 24 h): 66 ±/- 6.6%
- Mean Half-life (fast) ([23]; other cell line): 0.52 h
- Mean Half-life (slow) ([23]; other cell line): 1,626 min
- Percent Depletion 240 min ([24]; 240 min): 42 ±/- 7.7%
- Percent Depletion 24 hour ([24]; 24 h): 55 ±/- 7.4%
- Mean Half-life (fast) ([24]; other cell line): 0.388 h
- Mean Half-life (slow) ([24]; other cell line): ~9,684 min
- Percent Depletion 240 min ([25]; 240 min): 36 ±/- 5.4%
- Percent Depletion 24 hour ([25]; 24 h): 60 ±/- 4.5%
- Mean Half-life (slow) ([25]; other cell line): ~1,887 min
- Percent Depletion 240 min ([26]; 240 min): 82 ±/- 2.9%
- Mean Half-life ([26]; hepatocytes): 1.44 h
